From patent publication US11638424B2, “Mosquito attractant formulations and uses thereof” (priority 2017, dated 2023)

Columns and labels:
Assay type in all cases: in vivo
A. gambiae sensu lato [1] = test: Dual choice attraction bioassay (Y-tube olfactometer); conditions: added to RBCs
Method: Mosquitoes used in this study were from the laboratory colony of A. gambiae sensu lato (Keele line, University of Glasgow), which was produced by balanced interbreeding of four A. gambiae s.s. strains (H. Hurd, et al. Evolution, 59, 2560-2572 (2005)). Larvae were reared under standard insectary conditions (27±1° C., 70% humidity, 12 h light: 12 h dark cycle) and fed on TetraMin fish flakes (Tetra ltd., Germany). Pupae were transferred into holding cages for emergence. Emerged adults were fed ad libitum on 5% glucose solution, supplemented with 0.05% (w/v) 4-aminobenzoic acid (PABA, Sigma-Aldrich), through soaked filters on top of the 2 ml tubes and with soaked filter pads inside cages. Red blood cells (RBCs) were washed with Roswell Park Memorial Institute (RPMI) medium and stored in RPMI at 50% haematocrit at 4° C. until use. To measure the effect of HMBPP on mosquito fitness, RBCs stored in RPMI were centrifuged at 2500×g for 5 min followed by replacement of the medium with AB serum for a final haematocrit of 40%. HMBPP (stock concentration at 4 mM in Nanopure water, stored at −80° C.) was diluted to 10 μM in 1 ml RBC suspension, and the corresponding volume of Nanopure water was added to the control RBCs. All experiments were, unless otherwise stated, conducted on 5-7 days post-emergence female mosquitoes maintained in separated cages (approximately 210 individuals per cohort) and fed RBCs either with or without HMBPP for 30 min. All experiments were performed in triplicates.
Initial experiments were performed using a Y-tube olfactometer (length of the central cylinder and two arms: 25/15/15 cm respectively, inner diameter: 5 cm; see FIG. 1a). For each experiment, 180 female mosquitoes were individually placed in a release chamber and flown one by one. Females flew towards the upwind end (airflow 3 L min^−1) and entered one of two trapping chambers through which odour released from nearby membrane feeders passed (5 cm distance to each trapping chamber). Three experiments were conducted. In the first experiment, the membrane feeders were loaded with RBCs with or without HMBPP, while in the second they were loaded with serum with or without HMBPP. The third experiment was performed with a 5% glucose with 0.05% PABA solution with or without HMBPP. To control for possible spatial effects, the location of treatment at each olfactometer arm was switched every 30 minutes (˜15 mosquitoes flied one by one in each 30 minutes). Each replacement (feeder rotation with fresh RBCs) was counted as an experimental replicate (experimental block). Mosquitoes reaching any of the trapping chambers were considered to have made a choice. Each experiment was repeated six times with in total 180 mosquitoes per treatment.

A. gambiae s.l. = test: Olfactometer bioassay (larger Y-tube olfactometer / wind tunnel assay); conditions: RBCs+CO2 vs hRBCs, FIG. 2A
Method: Behavioural experiments were performed using different odour sources with and without pulsed CO2 stimuli in a Plexiglas Y shaped olfactometer (9.5 cm i.d.×length of the central cylinder and two arms: 120/120/120 cm respectively), illuminated from above at 280 lx. A charcoal-filtered and humidified air stream (25±2° C., RH 65±2%) passed through stainless steel mesh screens at 30 cm s^−1 to generate a laminar flow in the olfactometer. Odors were introduced into the air stream of each arm at the downwind end. […] Odor sources consisted of either RBC-based treatments or headspace extracts. RBC-based treatments included RBCs alone, hRBCs, giRBCs or ippRBCs (RBCs supplemented with HMBPP, gametocytes or IPP), as well as RBCs with supernatants from gametocyte-infected RBCs, or RBCs supplemented with the synthetic odour blend. Headspace extracts collected from hRBCs and giRBCs were used. Treatments including RBCs were heated to 37° C. prior to being pumped (150 ml min^−1) into the airstream of each arm separately. The blend and headspace extracts were delivered to each arm via a wick dispenser. Carbon dioxide (Strandmöllen) was introduced into a plume generator that was placed behind the metal screens to create a homogenous-pulsed flow, which was regulated by a stimulus controller (SEC-2/b, Syntech, Löptin Germany). […]

A. gambiae sensu lato [2] = test: Fosmidomycin assay (feeding on media of FR-900098-treated, IPP-rescued parasite culture); conditions: supplemented with IPP, 90 s feeding, FIG. 1D
Method: The fosmidomycin assay was carried out as previously described (12). 48 hours (h) after the initiation of antibiotic treatment (FR-900098, the N-acetyl analogue to fosmidomycin), asexual parasite cultures were rescued by supplementation with 200 μM IPP for 48 h of continued passaging. Media from the rescued culture were collected and offered to mosquitoes, in comparison with media from control parasites (without antibiotic treatment). Fifty mosquitoes, isolated in two separate cages, were offered different treatments. Each group was allowed to feed on its own membrane feeder for 90 s.

## C/C(=C\CO)CO [(2E)-2-methylbut-2-ene-1,4-diol, reference compound]
A. gambiae sensu lato [1]
  effect on the attraction of mosquitoes to RBCs: had no effect

## O=C=O [carbon dioxide, reference compound]
A. gambiae s.l.
  attraction to RBCs supplemented with carbon dioxide versus hRBCs: not sufficient to reproduce the full mosquito attraction to hRBCs

## CC(=O)N(O)CCCP(=O)(O)O [fosmidomycin derivative]
A. gambiae sensu lato [2]
  mosquito feeding after block of HMBPP synthesis in tiRBCs: reduction of feeding to control levels
